Experimental data taken from patent US12435101B2, “Isochroman compound” (Zhejiang Yangli Pharmaceutical Technology Co., Ltd., priority 2020, dated 2025).

Tested on: NCI-H460 cells
Assay: Antiproliferative activity on NCI-H460 cell line (CellTiter-Glo)
Type: cell-based
Conditions: Homo sapiens; NCI-H460 (lung cancer, high AKR1C3); 2 hours with drug, then 70 hours drug-free
Experimental: RPMI-1640 medium and penicillin/streptomycin antibiotics were purchased from Vicente, and fetal bovine serum was purchased from Biosera. CellTiter-Glo (Cell Viability Chemiluminescence Detection Reagent) reagent was purchased from Promega. The NCI-H460 cell line was purchased from Nanjing Kebai Biotechnology Co., Ltd. Nivo Multimode Plate Reader (PerkinElmer).
NCI-H460 cells (lung cancer) were seeded in a 96-well plate, 80 μL of cell suspension per well, which contained 4000 NCI-H460 cells. The cell plate was incubated overnight in a carbon dioxide incubator. The compound to be tested was diluted 5-fold to the ninth concentration with a multi-channel pipette, that is, the compound to be tested was diluted from 2 mM to 5.2 nM, and an experiment for the sample assayed in duplicate was set up. 78 μL of medium was added to the middle plate, and 2 μL of the gradient-diluted compound per well was transferred to the middle plate according to the corresponding position, then 20 μL per well was transferred to the cell plate after mixing. […] Another cell plate was prepared, and the signal value was read as the maximum value (Max value in the following equation) on the day of drug addition to participate in data analysis. […] The multimode plate reader was used for readings. […]. […]

Compound	IC50
O=[N+]([O-])c1cc2c(cc1Oc1cccnc1F)C(OP(=O)(N1CC1)N1CC1)COC2 (centres unmarked) [Compound 1]	0.0038 µM
O=[N+]([O-])c1cc2c(cc1Oc1ccccc1F)C(OP(=O)(N1CC1)N1CC1)COC2 (centres unmarked) [Compound 2]	0.0216 µM
